biological target: MAPK14 (UniProt Q16539); experiment: CSBP Binding Inhibition
Sequence (Q16539 whole entry, looked up): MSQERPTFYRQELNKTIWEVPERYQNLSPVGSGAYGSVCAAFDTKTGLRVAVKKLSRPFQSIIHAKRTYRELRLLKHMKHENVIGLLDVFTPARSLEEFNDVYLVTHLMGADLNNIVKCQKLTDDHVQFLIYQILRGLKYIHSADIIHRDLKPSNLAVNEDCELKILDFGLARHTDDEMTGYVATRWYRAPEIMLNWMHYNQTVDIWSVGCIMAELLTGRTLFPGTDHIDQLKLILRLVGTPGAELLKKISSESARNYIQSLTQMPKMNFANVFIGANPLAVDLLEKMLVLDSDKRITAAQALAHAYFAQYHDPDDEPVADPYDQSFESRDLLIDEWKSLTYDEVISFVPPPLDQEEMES

IC50 | SMILES
< 50 µM | COc1nccc(-c2c(-c3ccc(F)cc3)ncn2[C@H]2CC[C@@](C)(O)CC2)n1.COc1nccc(-c2c(-c3ccc(F)cc3)ncn2[C@H]2CC[C@](C)(O)CC2)n1
< 50 µM | CC(C)Oc1nccc(-c2c(-c3ccc(F)cc3)ncn2C2CCC(O)CC2)n1 (stereo not given)
< 50 µM | CSc1nccc(-c2c(-c3ccc(F)cc3)ncn2[C@H]2CC[C@H](O)CC2)n1
< 50 µM | CC(C)Oc1nccc(-c2c(-c3ccc(F)cc3)ncn2C2CCC(=O)CC2)n1
< 50 µM | COc1nccc(-c2c(-c3ccc(F)cc3)ncn2C2CCC(=O)CC2)n1
< 50 µM | O=C1CCC(n2cnc(-c3ccc(F)cc3)c2-c2ccnc(O)n2)CC1
< 50 µM | CSc1nccc(-c2c(-c3ccc(F)cc3)ncn2C2CCC(=O)CC2)n1

biological target: MAPK14 (UniProt Q16539); experiment: CSBP Kinase Inhibition

IC50 | SMILES
< 50 µM | CCCC(=O)O[C@H]1CC[C@H](n2cnc(-c3ccc(F)cc3)c2-c2ccnc(OC)n2)CC1
< 50 µM | COc1nccc(-c2c(-c3ccc(F)cc3)ncn2[C@H]2CC[C@H](OC3CCCCO3)CC2)n1 (stereo not given in full)
< 50 µM | COc1nccc(-c2c(-c3ccc(F)cc3)ncn2[C@H]2CC[C@@H](N)CC2)n1
< 50 µM | COc1nccc(-c2c(-c3ccc(F)cc3)ncn2[C@H]2CC[C@](C)(O)CC2)n1
< 50 µM | COc1nccc(-c2c(-c3ccc(F)cc3)ncn2[C@H]2CC[C@@](C)(O)CC2)n1
< 50 µM | COc1nccc(-c2c(-c3ccc(F)cc3)ncn2[C@H]2CC[C@H](N)CC2)n1
< 50 µM | COc1nccc(-c2c(-c3ccc(F)cc3)ncn2[C@H]2CC[C@@](O)(CO)CC2)n1.COc1nccc(-c2c(-c3ccc(F)cc3)ncn2[C@H]2CC[C@](O)(CO)CC2)n1
< 50 µM | Oc1nccc(-c2c(-c3ccc(F)cc3)ncn2C2CCC(O)CC2)n1 (stereo not given)

Reference: the Kinase Knowledgebase extract (Sharma et al. 2016)
